Data as given in US20180049996A1, “THERAPEUTIC AGENT FOR CHRONIC RESPIRATORY DISEASE AND COMPOSITION FOR INHIBITING CARDIAC FIBROSIS” (NIPPON HYPOX LABORATORIES INCORPORATED, priority 2015, published 2018).

How the values were obtained:
Type in all cases: in vivo, male SD rats
[1] = tested on: Pulmonary Fibrosis Induced by Bleomycin; assay: Histopathologic examination of lungs, pulmonary fibrosis induced by bleomycin; settings: for Severity score: Alveolar space, Bleeding / Severity score: Alveolar space, Macrophage accumulation / Severity score: Alveolar space, Protein exudation / Severity score: Alveolar wall, Fibroblast accumulation / Severity score: Alveolar wall, Fibrosis of interstitial tissue / Severity score: Alveolar wall, Interstitial edema / Severity score: Alveolar wall, Mononuclear cell infiltration / Severity score: Circumvascular region, Perivascular edema / Severity score: Circumvascular region, Plasma cell infiltration / Severity score: Peribronchial and peribronchiolar regions, Fibrosis of interstitial tissue / Severity score: Peribronchial and peribronchiolar regions, Lymphoid follicle hyperplasia / Severity score: Type II alveolar epithelial cell, Adenomatous hyperplasia / Severity score: Type II alveolar epithelial cell, Atypia and dysplasia: day 20 after bleomycin
Procedure: (§1) Bleomycin is used to produce disease-model animals of interstitial pneumonia. The bleomycin and 2,3,5-trimethylhydroquinone-1-hexyl ether (HTHQ) as the hydroquinone derivative represented by the general formula (1) described above of the present invention were simultaneously administered to male SD rats of 10 week old after birth to examine the effect of the action. The test groups consisted of the control group to which sterile saline was administered; test group 1 to which bleomycin (7.5 mg/kg body weight) alone was administered; test group 2 to which bleomycin (7.5 mg/kg body weight) and HTHQ (50 mg/kg body weight/day) were administered in combination; and test group 3 to which bleomycin (7.5 mg/kg body weight) and HTHQ (200 mg/kg body weight/day) were administered in combination.
(§2) In test groups 1 to 3, bleomycin was orally administered in a single dose. In test groups 2 and 3, 2,3,5-trimethylhydroquinone-1-hexyl ether (HTHQ) was daily orally administered for 10 or 20 days starting from 24 h after the administration of bleomycin. In test group 1, olive oil, which was used as a solvent of HTHQ, was daily orally administered at 10 mL/kg/day starting from 24 h after the administration of bleomycin. The number of animals in each group was 16. 8 animals of each group were sacrificed on days 10 and 20 after the administration of bleomycin and measurement of body weight, lung autopsy, histopathologic examination of lungs and bronchoalveolar lavage examination were conducted.
The main lung lesions observed in the rats in test group 1 (the bleomycin-single administration group) on day 10 after the administration were the peribronchial and peribronchiola enlargement of alveoli, the hyperplasia of the alveolar wall, the infiltration of monocytes and lymphocytes in alveolar walls and interstitial tissue, and the exudation of alveolar macrophage into alveolar spaces. These lesions were alleviated in rats in test groups 2 and 3 (the HTHQ-administered groups) compared to the tissue in test group 1.
The result of the histopathologic examination of lungs of the control group and the test groups on day 20 after the administration of bleomycin is shown in Table 1 below. “−” indicates “not found”, “+” indicates “mild”, “++” indicates “moderate”, and “+++” indicates “severe” in severity scores. In test group 1 (the bleomycin-single administration group), the hyperplasia and fibrosis of peribronchial and adjacent alveolar walls became remarkable compared to the tissue on day 10 after the administration and the morphology of alveolus almost disappeared due to the infiltration of lymphocytes and neutrophils. The alveolar macrophages infiltrated within alveolar spaces were buried in surrounding tissues.

[2] = tested on: Pulmonary Fibrosis Induced by Bleomycin; assay: Bronchoalveolar lavage (BAL) examination, cell numbers, pulmonary fibrosis induced by bleomycin
Procedure: as §1, §2
Bronchoalveolar lavage (BAL) examination was conducted on the rats in the control group and the test groups. When interstitial pneumonia developed, the infiltration of inflammatory cells occurs and thus the total cell number in BAL fluid increases. The total cell numbers on day 10 after the administration of bleomycin were as follows: 2×10^5 cells in the control group, 9×10^5 cells in test group 1 (the bleomycin-single administration group), 6.5×10^5 cells in test group 2 (the low-dose HTHQ-administered group, 50 mg/kg body weight), and 10.5×10^5 cells in test group 3 (the high-dose HTHQ-administered group, 200 mg/kg body weight), and thus the effect of HTHQ administration was not found on day 10 after the administration of bleomycin.
When interstitial pneumonia developed, the infiltration of alveolar macrophages to interstitial tissue occurs and thus the alveolar macrophage number in BAL fluid increases. The alveolar macrophage numbers on day 10 after the administration of bleomycin were as follows: 1.45×10^5 cells in the control group, 4.5×10^5 cells in test group 1 (the bleomycin-single administration group), 1.99×10^5 cells in test group 2 (the low-dose HTHQ-administered group), and 3.24×10^5 cells in test group 3 (the high-dose HTHQ-administered group), and thus the effect of HTHQ administration was not found on day 10 after the administration of bleomycin. However, on day 20 after the administration, while the alveolar macrophage number of the bleomycin-single administration group was 5.5×10^5 cells, the alveolar macrophage number of the low-dose HTHQ-administered group was 3×10^5 cells and the alveolar macrophage number of the high-dose HTHQ-administered group was decreased to 2×10^5 cells.
When interstitial pneumonia developed, the infiltration of inflammatory cells of neutrophils to interstitial tissue occurs and thus the neutrophil number in BAL fluid increases. The neutrophil numbers on day 10 after the administration of bleomycin were as follows: 1.04×10^4 cells in the control group, 2.28×10^5 cells in test group 1 (the bleomycin-single administration group), 1.44×10^5 cells in test group 2 (the low-dose HTHQ-administered group), and 5.83×10^5 cells in test group 3 (the high-dose HTHQ-administered group), and thus the effect of HTHQ was not found on day 10 after the administration of bleomycin. […]

[3] = tested on: Pulmonary Fibrosis Induced by Bleomycin; assay: Gross pathology of lungs, pulmonary fibrosis induced by bleomycin; settings: test groups 2 and 3: bleomycin 7.5 mg/kg + HTHQ 50 or 200 mg/kg/day oral; day 20
Procedure: as §1
In test groups 1 to 3, bleomycin was orally administered in a single dose. In test groups 2 and 3, 2,3,5-trimethylhydroquinone-1-hexyl ether (HTHQ) was daily orally administered for 10 or 20 days starting from 24 h after the administration of bleomycin. In test group 1, olive oil, which was used as a solvent of HTHQ, was daily orally administered at 10 mL/kg/day starting from 24 h after the administration of bleomycin. The number of animals in each group was 16. […]

[4] = Test group 2: bleomycin 7.5 mg/kg + HTHQ 50 mg/kg/day oral
[5] = Test group 3: bleomycin 7.5 mg/kg + HTHQ 200 mg/kg/day oral
[6] = Test group 2: bleomycin + HTHQ 50 mg/kg/day oral, day 10
[7] = Test group 3: bleomycin + HTHQ 200 mg/kg/day oral, day 10
[8] = bleomycin + HTHQ 50 mg/kg/day oral (low-dose), day 20
[9] = bleomycin + HTHQ 200 mg/kg/day oral (high-dose), day 20

CCCCCCOc1cc(C)c(O)c(C)c1C [HTHQ, 2,3,5-trimethylhydroquinone-1-hexyl ether]
Severity score: Alveolar space, Bleeding [1, 4]: +
Severity score: Alveolar space, Macrophage accumulation [1, 4]: +
Severity score: Alveolar space, Protein exudation [1, 4]: +
Severity score: Alveolar wall, Fibroblast accumulation [1, 4]: ++
Severity score: Alveolar wall, Fibrosis of interstitial tissue [1, 4]: ++
Severity score: Alveolar wall, Interstitial edema [1, 4]: +
Severity score: Alveolar wall, Mononuclear cell infiltration [1, 4]: ++
Severity score: Circumvascular region, Perivascular edema [1, 4]: +
Severity score: Circumvascular region, Plasma cell infiltration [1, 4]: +
Severity score: Peribronchial and peribronchiolar regions, Fibrosis of interstitial tissue [1, 4]: +
Severity score: Peribronchial and peribronchiolar regions, Lymphoid follicle hyperplasia [1, 4]: +
Severity score: Type II alveolar epithelial cell, Adenomatous hyperplasia [1, 4]: ++
Severity score: Type II alveolar epithelial cell, Atypia and dysplasia [1, 4]: +
Severity score: Alveolar space, Bleeding [1, 5]: −
Severity score: Alveolar space, Macrophage accumulation [1, 5]: +
Severity score: Alveolar space, Protein exudation [1, 5]: ++
Severity score: Alveolar wall, Fibroblast accumulation [1, 5]: +
Severity score: Alveolar wall, Fibrosis of interstitial tissue [1, 5]: +
Severity score: Alveolar wall, Interstitial edema [1, 5]: +
Severity score: Alveolar wall, Mononuclear cell infiltration [1, 5]: ++
Severity score: Circumvascular region, Perivascular edema [1, 5]: −
Severity score: Circumvascular region, Plasma cell infiltration [1, 5]: −
Severity score: Peribronchial and peribronchiolar regions, Fibrosis of interstitial tissue [1, 5]: +
Severity score: Peribronchial and peribronchiolar regions, Lymphoid follicle hyperplasia [1, 5]: +
Severity score: Type II alveolar epithelial cell, Adenomatous hyperplasia [1, 5]: +
Severity score: Type II alveolar epithelial cell, Atypia and dysplasia [1, 5]: +
histopathologic lung lesions ([1]; test groups 2 and 3: bleomycin 7.5 mg/kg + HTHQ 50 or 200 mg/kg/day oral, day 10, compared to test group 1): alleviated
degree of histopathologic lung lesions ([1]; test groups 2 and 3: bleomycin 7.5 mg/kg + HTHQ 50 or 200 mg/kg/day oral, day 20, compared to test group 1): milder than test group 1
alveolar macrophage number in BAL fluid [2, 6]: 1.99×10^5 cells
lymphocyte number in BAL fluid [2, 6]: 3.07×10^5 cells
neutrophil number in BAL fluid [2, 6]: 1.44×10^5 cells
total cell number in BAL fluid [2, 6]: 6.5×10^5 cells
alveolar macrophage number in BAL fluid [2, 7]: 3.24×10^5 cells
lymphocyte number in BAL fluid [2, 7]: 1.43×10^5 cells
neutrophil number in BAL fluid [2, 7]: 5.83×10^5 cells
total cell number in BAL fluid [2, 7]: 10.5×10^5 cells
alveolar macrophage number in BAL fluid [2, 8]: 3×10^5 cells
lymphocyte number in BAL fluid [2, 8]: 0.53×10^5 cells
neutrophil number in BAL fluid [2, 8]: 4.34×10^5 cells
total cell number in BAL fluid [2, 8]: 7.9×10^5 cells
alveolar macrophage number in BAL fluid [2, 9]: 2×10^5 cells
lymphocyte number in BAL fluid [2, 9]: 0.3×10^5 cells
neutrophil number in BAL fluid [2, 9]: 1.49×10^5 cells
total cell number in BAL fluid [2, 9]: 3.8×10^5 cells
gross pathology of lungs (lesions) [3]: alleviated
